Data on 47 molecules can be found in US12162858B2, “Quinoline derivatives as inhibitors of AXL/MER RTK and CSF1R” (QURIENT CO., LTD., priority 2018, dated 2024).

The test addresses CSF1R (Homo sapiens, UniProt P07333). In words: KINOMEscan competition binding assay for CSF1R. The following applies: for Kd: read-out: CSF1R kinase binding activity (Kd). On the set-up: DNA tag for qPCR (not a peptide); host or cells: E. coli/T7 phage or HEK-293. The essentials:
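Values are either % inhibition at 0.1 uM, relative to DMSO (100% Ctrl) and a control compound (0% Ctrl), or Kd from an 11-point 3-fold series fitted with Hill slope −1. DNA-tagged kinase binds immobilized ligand beads with compound for 1 h at room temperature, and eluted kinase is measured by qPCR.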

Setting [1] is: read-out: CSF1R kinase binding activity, Percent (%) inhibition.
Setting [2] is: read-out: CSF1R kinase binding activity, Range.

Where two headings read alike, the source gives them in different places.

Chain of CSF1R (P07333 20-972): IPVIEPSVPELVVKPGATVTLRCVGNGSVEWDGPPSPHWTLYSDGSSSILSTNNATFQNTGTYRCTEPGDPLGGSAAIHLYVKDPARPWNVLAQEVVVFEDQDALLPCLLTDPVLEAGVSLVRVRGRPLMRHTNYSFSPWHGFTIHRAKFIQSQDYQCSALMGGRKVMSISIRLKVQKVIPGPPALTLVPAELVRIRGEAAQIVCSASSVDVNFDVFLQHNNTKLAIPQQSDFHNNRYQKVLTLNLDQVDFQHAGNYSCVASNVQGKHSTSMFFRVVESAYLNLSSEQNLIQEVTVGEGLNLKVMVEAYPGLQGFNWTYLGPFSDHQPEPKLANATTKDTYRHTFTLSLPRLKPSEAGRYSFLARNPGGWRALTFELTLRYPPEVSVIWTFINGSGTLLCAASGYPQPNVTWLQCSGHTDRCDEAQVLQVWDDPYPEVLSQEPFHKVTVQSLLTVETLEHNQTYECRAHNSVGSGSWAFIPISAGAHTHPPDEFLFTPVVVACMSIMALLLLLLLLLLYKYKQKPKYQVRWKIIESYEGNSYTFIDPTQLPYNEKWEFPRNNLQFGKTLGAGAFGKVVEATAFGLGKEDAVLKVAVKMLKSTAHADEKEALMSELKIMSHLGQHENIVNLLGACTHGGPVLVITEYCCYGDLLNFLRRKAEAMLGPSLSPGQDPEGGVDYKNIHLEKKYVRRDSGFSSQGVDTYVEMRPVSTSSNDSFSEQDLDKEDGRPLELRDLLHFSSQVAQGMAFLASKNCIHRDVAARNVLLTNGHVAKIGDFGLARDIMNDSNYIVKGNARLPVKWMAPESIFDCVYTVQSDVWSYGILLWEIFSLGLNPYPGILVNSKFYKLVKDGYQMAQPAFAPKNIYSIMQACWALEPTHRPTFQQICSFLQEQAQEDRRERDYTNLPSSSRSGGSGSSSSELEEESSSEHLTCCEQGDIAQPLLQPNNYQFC

In general, Kd refers to the concentration at which binding is half-saturated. As to `CCn1nc(C(=O)Nc2ccc(Oc3ccnc4cc(OC)c(OC)cc34)cn2)c(OCC(F)(F)F)c1C` [Compound 1], the Kd was less than 100 nM. Further, the inhibition at 0.1 µM under setting [1] was determined as 96%. The inhibition at 0.1 µM under setting [2] was no less than 80%.

As to `COc1cc2nccc(Oc3ccc(NC(=O)c4nn(C(C)C)c(C)c4OCC(F)(F)F)nc3)c2cc1OC` [Compound 2], the equilibrium dissociation constant (Kd) was 100 to 500 nM. The inhibition at 0.1 µM under setting [1] was determined as 89%. Further, the inhibition at 0.1 µM under setting [2] was no less than 80%.

On to `COc1cc2nccc(Oc3ccc(NC(=O)c4nn(C5CC5)c(C(C)=O)c4OCC(F)(F)F)nc3)c2cc1OC` [Compound 3], for which the Kd lay in the range of 100 to 500 nM. For the same molecule, the inhibition at 0.1 µM under setting [1] came out at 71%. Moreover, the inhibition at 0.1 µM under setting [2] was in the range of 50 to 80%.

Consider `COc1cc2nccc(Oc3ccc(NC(=O)c4nn(C5CCOC5)cc4OCC(F)(F)F)nc3)c2cc1OC` (stereo not drawn) [Compound 13], for which the Kd was less than 100 nM. Besides, under setting [1], the inhibition at 0.1 µM is 98%. Also, the inhibition at 0.1 µM under setting [2] is no less than 80%.

Turning to `CCCn1cc(OCCF)c(C(=O)Nc2ccc(Oc3ccnc4cc(OC)c(OC)cc34)cn2)n1` [Compound 14], the Kd was less than 100 nM. Further, the inhibition at 0.1 µM under setting [1] turned out to be 98%. Further, under setting [2], the inhibition at 0.1 µM was no less than 80%.

Take `CCCn1cc(OCCC(O)CO)c(C(=O)Nc2ccc(Oc3ccnc4cc(OC)c(OC)cc34)cn2)n1` (stereo not drawn) [Compound 15]: the inhibition at 0.1 µM reads like this: under setting [1], 87%; under setting [2], no less than 80%.

With `COc1cc2nccc(Oc3ccc(NC(=O)c4nn(CC(C)O)cc4OCC(F)(F)F)nc3)c2cc1OC` (stereo not drawn) [Compound 17], the inhibition at 0.1 µM runs as follows: under setting [1], 97%; under setting [2], no less than 80%.

Turning to `COc1cc2nccc(Oc3ccc(NC(=O)c4nn(CCCO)cc4OCC(F)(F)F)nc3)c2cc1OC` [Compound 18], the inhibition at 0.1 µM runs as follows: under setting [1], 97%; under setting [2], no less than 80%.

For `COc1cc2nccc(Oc3ccc(NC(=O)c4nn(CC(C)=O)cc4OCC(F)(F)F)nc3)c2cc1OC` [Compound 19], the inhibition at 0.1 µM under setting [1] was determined as 97% and the inhibition at 0.1 µM under setting [2] is no less than 80%.

Regarding `CCC(=O)n1cc(OCC(F)(F)F)c(C(=O)Nc2ccc(Oc3ccnc4cc(OC)c(OC)cc34)cn2)n1` [Compound 20], the inhibition at 0.1 µM is, setting by setting: under setting [1], 99%; under setting [2], no less than 80%.

In the case of `COc1cc2nccc(Oc3ccc(NC(=O)c4nn(CC(C)C)cc4OCC(F)(F)F)nc3)c2cc1OC` [Compound 21], the inhibition at 0.1 µM by setting is: under setting [1], 95%; under setting [2], no less than 80%.

In the case of `COc1cc2nccc(Oc3ccc(NC(=O)c4nn(C(C)(C)C)cc4OCC(F)(F)F)nc3)c2cc1OC` [Compound 22], the inhibition at 0.1 µM runs as follows: under setting [1], 93%; under setting [2], no less than 80%.

Take `CCCn1cc(NCC(F)(F)F)c(C(=O)Nc2ccc(Oc3ccnc4cc(OC)c(OC)cc34)cn2)n1` [Compound 23]: the inhibition at 0.1 µM is 94% under setting [1] and no less than 80% under setting [2].

For the molecule `COc1cc2nccc(Oc3ccc(NC(=O)c4nn(C5CCC5)cc4OCC(F)(F)F)nc3)c2cc1OC` [Compound 24], the inhibition at 0.1 µM under setting [1] came out at 96% and the inhibition at 0.1 µM under setting [2] is no less than 80%.

As for `CCCn1cc(OCC(F)(F)F)c(C(=O)Nc2ccc(Oc3ccnc4cc(OC)c(OC)cc34)c(F)c2)n1` [Compound 25], the inhibition at 0.1 µM is 87% under setting [1] and no less than 80% under setting [2].

Take `CCCn1cc(OCC(F)(F)F)c(C(=O)Nc2ccc(Oc3ccnc4cc(OC)c(OC)cc34)c(C)c2)n1` [Compound 26]: the inhibition at 0.1 µM reads like this: under setting [1], 94%; under setting [2], no less than 80%.

As to `CCCn1cc(OCC(F)(F)F)c(C(=O)Nc2ccc(Oc3ccnc4cc(OC)c(OC)cc34)cc2C)n1` [Compound 27], the inhibition at 0.1 µM under setting [1] is 58% and the inhibition at 0.1 µM under setting [2] lay within 50 to 80%.

On to `CCCn1cc(OCC(F)(F)F)c(C(=O)Nc2ccc(Oc3ccnc4cc(OC)c(OC)cc34)cc2F)n1` [Compound 28], for which the inhibition at 0.1 µM runs as follows: under setting [1], 90%; under setting [2], no less than 80%.

As to `COc1cc2nccc(Oc3ccc(NC(=O)c4nn(C[C@@H](C)O)cc4OCC(F)(F)F)nc3)c2cc1OC` [Compound 29], the inhibition at 0.1 µM runs as follows: under setting [1], 99%; under setting [2], no less than 80%.

Consider `COc1cc2nccc(Oc3ccc(NC(=O)c4nn(C[C@H](C)O)cc4OCC(F)(F)F)nc3)c2cc1OC` [Compound 30], for which the inhibition at 0.1 µM is 99% under setting [1] and no less than 80% under setting [2].

Take `CCCn1cc(OCCC(F)(F)F)c(C(=O)Nc2ccc(Oc3ccnc4cc(OC)c(OC)cc34)cn2)n1` [Compound 31]: the inhibition at 0.1 µM under setting [1] was 95% and the inhibition at 0.1 µM under setting [2] is no less than 80%.

In the case of `CCCn1cc(OCC(F)(F)F)c(C(=O)Nc2ccc(Oc3ccnc4cc(OC)c(OC)cc34)nn2)n1` [Compound 32], the inhibition at 0.1 µM reads like this: under setting [1], 95%; under setting [2], no less than 80%.

For `COc1cc2nccc(Oc3ccc(NC(=O)c4nn(C)cc4OCC(F)(F)F)nc3)c2cc1OC` [Compound 33], the inhibition at 0.1 µM under setting [1] was 98% and the inhibition at 0.1 µM under setting [2] was no less than 80%.

As to `CCCn1cc(OC(C)C)c(C(=O)Nc2ccc(Oc3ccnc4cc(OC)c(OC(F)(F)F)cc34)c(F)c2)n1` [Compound 35], the inhibition at 0.1 µM under setting [1] was determined as 6% and the inhibition at 0.1 µM under setting [2] is less than 50%.

Consider `CCCCn1cc(OCC(F)(F)F)c(C(=O)Nc2ccc(Oc3ccnc4cc(OC)c(OC)cc34)cn2)n1` [Compound 36], for which the inhibition at 0.1 µM by setting is: under setting [1], 95%; under setting [2], no less than 80%.

With `COc1cc2nccc(Oc3ccc(NC(=O)c4nn(C)cc4OCC(F)(F)F)cc3C)c2cc1OC` [Compound 37], the inhibition at 0.1 µM was 97% under setting [1] and no less than 80% under setting [2].

As to `CCCn1cc(OCC(F)(F)F)c(C(=O)Nc2ccc(Oc3ccnc4cc(OC)c(OC)cc34)cc2)n1` [Compound 38], the inhibition at 0.1 µM by setting is: under setting [1], 87%; under setting [2], no less than 80%.

Consider `COc1cc2nccc(Oc3ccc(NC(=O)c4nn(CCC#N)cc4OCC(F)(F)F)nc3)c2cc1OC` [Compound 39], for which the inhibition at 0.1 µM under setting [1] stood at 97% and the inhibition at 0.1 µM under setting [2] is no less than 80%.

For the molecule `COc1cc2nccc(Oc3ccc(NC(=O)c4nn(C5CCCC5)cc4OCC(F)(F)F)nc3)c2cc1OC` [Compound 40], the inhibition at 0.1 µM runs as follows: under setting [1], 94%; under setting [2], no less than 80%.

Take `COc1cc2nccc(Oc3ccc(NC(=O)c4nn(CC5CC5)cc4OCC(F)(F)F)nc3)c2cc1OC` [Compound 41]: the inhibition at 0.1 µM reads like this: under setting [1], 97%; under setting [2], no less than 80%.

As to `COc1cc2nccc(Oc3ccc(NC(=O)c4nn(CC5CCC5)cc4OCC(F)(F)F)nc3)c2cc1OC` [Compound 42], the inhibition at 0.1 µM is 95% under setting [1] and no less than 80% under setting [2].

For the molecule `COc1cc2nccc(Oc3ccc(NC(=O)c4nn(CC5CCCCC5)cc4OCC(F)(F)F)nc3)c2cc1OC` [Compound 43], the inhibition at 0.1 µM runs as follows: under setting [1], 94%; under setting [2], no less than 80%.

As to `COc1cc2nccc(Oc3ccc(NC(=O)c4nn(CC5CCOC5)cc4OCC(F)(F)F)nc3)c2cc1OC` (stereo not drawn) [Compound 44], the inhibition at 0.1 µM under setting [1] was determined as 82% and the inhibition at 0.1 µM under setting [2] is no less than 80%.

On to `COc1cc2nccc(Oc3ccc(NC(=O)c4nn(C)cc4OCC(F)(F)F)c(F)c3)c2cc1OC` [Compound 45], for which the inhibition at 0.1 µM by setting is: under setting [1], 93%; under setting [2], no less than 80%.

In the case of `COc1cc2nccc(Oc3ccc(NC(=O)c4nn(CCO)cc4OCC(F)(F)F)c(F)c3)c2cc1OC` [Compound 46], the inhibition at 0.1 µM was 96% under setting [1] and no less than 80% under setting [2].

With `COc1cc2nccc(Oc3ccc(NC(=O)c4nn(C5CCCC5)cc4OCC(F)(F)F)c(F)c3)c2cc1OC` [Compound 47], the inhibition at 0.1 µM is 91% under setting [1] and no less than 80% under setting [2].

In the case of `COc1cc2nccc(Oc3ccc(NC(=O)c4nn(CC(C)C)cc4OCC(F)(F)F)c(F)c3)c2cc1OC` [Compound 48], the inhibition at 0.1 µM under setting [1] stood at 82% and the inhibition at 0.1 µM under setting [2] was no less than 80%.

For the molecule `COCCn1cc(OCC(F)(F)F)c(C(=O)Nc2ccc(Oc3ccnc4cc(OC)c(OC)cc34)cc2F)n1` [Compound 49], the inhibition at 0.1 µM by setting is: under setting [1], 66%; under setting [2], 50 to 80%.

On to `COc1cc2nccc(Oc3ccc(NC(=O)c4nn(C)cc4OCC(F)(F)F)cc3F)c2cc1OC` [Compound 50], for which the inhibition at 0.1 µM is, setting by setting: under setting [1], 80%; under setting [2], 50 to 80%.

For the molecule `COc1cc2nccc(Oc3ccc(NC(=O)c4nn(CCO)cc4OCC(F)(F)F)cc3F)c2cc1OC` [Compound 51], the inhibition at 0.1 µM reads like this: under setting [1], 82%; under setting [2], no less than 80%.

In the case of `COc1cc2nccc(Oc3ccc(NC(=O)c4nn(C5CCCC5)cc4OCC(F)(F)F)cc3F)c2cc1OC` [Compound 52], the inhibition at 0.1 µM runs as follows: under setting [1], 71%; under setting [2], 50 to 80%.

As for `COc1cc2nccc(Oc3ccc(NC(=O)c4nn(CC(C)C)cc4OCC(F)(F)F)cc3F)c2cc1OC` [Compound 53], the inhibition at 0.1 µM reads like this: under setting [1], 71%; under setting [2], 50 to 80%.

On to `COCCn1cc(OCC(F)(F)F)c(C(=O)Nc2ccc(Oc3ccnc4cc(OC)c(OC)cc34)c(F)c2)n1` [Compound 54], for which the inhibition at 0.1 µM under setting [1] was 81% and the inhibition at 0.1 µM under setting [2] was no less than 80%.

Consider `COc1cc2nccc(Oc3ccc(NC(=O)c4nn(C5CCOC5)cc4OCC(F)(F)F)cc3F)c2cc1OC` (stereo not drawn) [Compound 55], for which the inhibition at 0.1 µM runs as follows: under setting [1], 60%; under setting [2], 50 to 80%.

As for `COc1cc2nccc(Oc3ccc(NC(=O)c4nn(CCO)cc4OCC(F)(F)F)cc3C)c2cc1OC` [Compound 56], the inhibition at 0.1 µM by setting is: under setting [1], 0%; under setting [2], less than 50%.

Regarding `COc1cc2nccc(Oc3ccc(NC(=O)c4nn(C5CCCC5)cc4OCC(F)(F)F)cc3C)c2cc1OC` [Compound 57], the inhibition at 0.1 µM is, setting by setting: under setting [1], 97%; under setting [2], no less than 80%.

In the case of `COc1cc2nccc(Oc3ccc(NC(=O)c4nn(CC(C)C)cc4OCC(F)(F)F)cc3C)c2cc1OC` [Compound 58], the inhibition at 0.1 µM was 76% under setting [1] and 50 to 80% under setting [2].
